# In ChEMBL document CHEMBL1157501, “Novel fluorinated acridone derivatives. Part 1: synthesis and evaluation as potential anticancer agents” (Bioorg Med Chem Lett, 2008):
# Tests used:
# CCRF-CEM [1] = assay: Growth inhibition of human CCRF-CEM cells at 10 uM relative to control; assay type: functional
# BT-549 [2] = assay: Antiproliferative activity against human BT549 cells after 72 hrs by alamar blue assay; assay type: functional, cell-based; conditions: BT-549, 72 h
# 786-0 [3] = assay: Growth inhibition of human 786-0 cells at 10 uM relative to control; assay type: functional
# A549 [4] = assay: Growth inhibition of human A549 cells at 10 uM relative to control; assay type: functional
# SNB-75 [5] = assay: Growth inhibition of human SNB75 cells at 10 uM relative to control; assay type: functional
# MOLT-4 [6] = assay: Growth inhibition of human MOLT4 cells at 10 uM relative to control; assay type: functional
# UACC-257 [7] = assay: Growth inhibition of human UACC257 cells at 10 uM relative to control; assay type: functional
# Jurkat = assay: Antiproliferative activity against human Jurkat cells after 72 hrs by Alamar Blue assay; assay type: functional, cell-based
# MCF7 [8] = assay: Growth inhibition of human MCF7 cells at 10 uM relative to control; assay type: functional
# SK-MEL-28 [9] = assay: Growth inhibition of human SK-MEL-28 cells at 10 uM relative to control; assay type: functional
# HT-29 [10] = assay: Growth inhibition of human HT29 cells at 10 uM relative to control; assay type: functional
# CAKI-1 [11] = assay: Growth inhibition of human CAKI1 cells at 10 uM relative to control; assay type: functional
# HCT-116 [12] = assay: Growth inhibition of human HCT116 cells at 10 uM relative to control; assay type: functional
# T47D [13] = assay: Growth inhibition of human T47D cells at 10 uM relative to control; assay type: functional
# SW480 = assay: Antiproliferative activity against human SW480 cells after 72 hrs by Alamar Blue assay; assay type: functional, cell-based; conditions: SW480, 72 h
# BT-20 = assay: Antiproliferative activity against human BT20 cells after 72 hrs by Alamar Blue assay; assay type: functional, cell-based; conditions: BT-20, 72 h
# HOP-92 [14] = assay: Growth inhibition of human HOP92 cells at 10 uM relative to control; assay type: functional
# [15] = Growth inhibition of human HL60(TB) cells at 10 uM relative to control; assay type: functional, HL-60(TB); conditions: HL-60
# SF-295 [16] = assay: Growth inhibition of human SF295 cells at 10 uM relative to control; assay type: functional
# OVCAR-4 = assay: Anticancer activity against human OVCAR4 cells; assay type: functional
# ACHN = assay: Anticancer activity against human ACHN cells; assay type: functional
# UACC-62 = assay: Anticancer activity against human UACC62 cells; assay type: functional
# LOX IMVI = assay: Anticancer activity against human LOX IMVI cells; assay type: functional
# K562 = assay: Anticancer activity against human K562 cells; assay type: functional
# 786-0 [17] = assay: Anticancer activity against human 786-0 cells; assay type: functional
# [18] = Anticancer activity against human HL60(TB) cells; assay type: functional; conditions: HL-60
# A498 = assay: Anticancer activity against human A498 cells; assay type: functional
# NCI-H460 = assay: Anticancer activity against human NCI-H460 cells; assay type: functional
# HOP-92 [19] = assay: Anticancer activity against human HOP92 cells; assay type: functional
# MDA-MB-435 = assay: Anticancer activity against human MDA-MB-435 cells; assay type: functional
# NCI-H322M = assay: Anticancer activity against human NCI-H322M cells; assay type: functional
# SF-268 = assay: Anticancer activity against human SF268 cells; assay type: functional
# NCI-H226 = assay: Anticancer activity against human NCI-H226 cells; assay type: functional
# OVCAR-5 = assay: Anticancer activity against human OVCAR5 cells; assay type: functional
# SNB-75 [20] = assay: Anticancer activity against human SNB75 cells; assay type: functional
# RPMI-8226 = assay: Anticancer activity against human RPMI8226 cells; assay type: functional
# HCC 2998 = assay: Anticancer activity against human HCC2998 cells; assay type: functional
# HOP-62 = assay: Anticancer activity against human HOP62 cells; assay type: functional
# UACC-257 [21] = assay: Anticancer activity against human UACC257 cells; assay type: functional
# U-251 = assay: Anticancer activity against human U251 cells; assay type: functional
# SF-295 [22] = assay: Anticancer activity against human SF295 cells; assay type: functional
# PC-3 = assay: Anticancer activity against human PC3 cells; assay type: functional
# OVCAR-3 = assay: Anticancer activity against human OVCAR-3 cells; assay type: functional
# T47D [23] = assay: Anticancer activity against human T47D cells; assay type: functional
# SK-MEL-28 [24] = assay: Anticancer activity against human SK-MEL-28 cells; assay type: functional
# HT-29 [25] = assay: Anticancer activity against human HT29 cells; assay type: functional
# MOLT-4 [26] = assay: Anticancer activity against human MOLT4 cells; assay type: functional
# UO-31 = assay: Anticancer activity against human UO31 cells; assay type: functional
# SNB-19 = assay: Anticancer activity against human SNB19 cells; assay type: functional
# BT-549 [27] = assay: Anticancer activity against human BT549 cells; assay type: functional
# MDA-MB-231 = assay: Anticancer activity against human MDA-MB-231 cells; assay type: functional
# SW-620 = assay: Anticancer activity against human SW620 cells; assay type: functional
# NCI/ADR-RES = assay: Anticancer activity against human NCI/ADR-RES cells; assay type: functional
# Hs-578T = assay: Anticancer activity against human HS578T cells; assay type: functional
# KM12 = assay: Anticancer activity against human KM12 cells; assay type: functional
# MCF7 [28] = assay: Anticancer activity against human MCF7 cells; assay type: functional
# CAKI-1 [29] = assay: Anticancer activity against human CAKI1 cells; assay type: functional
# MDA-MB-468 = assay: Anticancer activity against human MDA-MB-468 cells; assay type: functional
# Malme-3M = assay: Anticancer activity against human MALME-3M cells; assay type: functional
# NCI-H23 = assay: Anticancer activity against human NCI-H23 cells; assay type: functional
# TK-10 = assay: Anticancer activity against human TK10 cells; assay type: functional
# SN12C = assay: Anticancer activity against human SN12C cells; assay type: functional
# DU-145 = assay: Anticancer activity against human DU145 cells; assay type: functional
# EKVX = assay: Anticancer activity against human EKVX cells; assay type: functional
# HCT-116 [30] = assay: Anticancer activity against human HCT116 cells; assay type: functional
# CCRF-CEM [31] = assay: Anticancer activity against human CCRF-CEM cells; assay type: functional
# HCT-15 = assay: Anticancer activity against human HCT15 cells; assay type: functional
# M14 = assay: Anticancer activity against human M14 cells; assay type: functional
# A549 [32] = assay: Anticancer activity against human A549 cells; assay type: functional
# OVCAR-8 = assay: Anticancer activity against human OVCAR8 cells; assay type: functional
# SK-MEL-5 = assay: Anticancer activity against human SK-MEL-5 cells; assay type: functional
# IGROV-1 = assay: Anticancer activity against human IGROV1 cells; assay type: functional
# NCI-H522 = assay: Anticancer activity against human NCI-H522 cells; assay type: functional
# SK-OV-3 = assay: Anticancer activity against human SKOV3 cells; assay type: functional
# SF-539 = assay: Anticancer activity against human SF539 cells; assay type: functional
# COLO 205 = assay: Anticancer activity against human COLO205 cells; assay type: functional
structure (smiles),measurement,setting,value
O=C1CC(C(F)(F)F)Cc2nc3ccc(Br)cc3c(-c3ccccc3F)c21 (centres undefined),inhibition at 10 µM,CCRF-CEM [1],28%
same,IC50,BT-549 [2],17.4 µM
same,inhibition at 10 µM,786-0 [3],62%
same,inhibition at 10 µM,A549 [4],< 20%
same,inhibition at 10 µM,SNB-75 [5],< 20%
same,inhibition at 10 µM,MOLT-4 [6],< 20%
same,inhibition at 10 µM,UACC-257 [7],< 20%
same,IC50,Jurkat,11.6 µM
same,inhibition at 10 µM,MCF7 [8],< 20%
same,inhibition at 10 µM,SK-MEL-28 [9],< 20%
same,inhibition at 10 µM,HT-29 [10],< 20%
same,inhibition at 10 µM,CAKI-1 [11],45%
same,inhibition at 10 µM,HCT-116 [12],35%
same,inhibition at 10 µM,T47D [13],< 20%
same,IC50,SW480,15.5 µM
same,IC50,BT-20,23.3 µM
same,inhibition at 10 µM,HOP-92 [14],48%
same,inhibition at 10 µM,[15],29%
same,inhibition at 10 µM,SF-295 [16],< 20%
O=C1CC(C(F)(F)F)Cc2nc3c(Br)cc(Br)cc3cc21 (centres undefined),GI50,OVCAR-4,6.49 µM
same,GI50,ACHN,17.5 µM
same,GI50,UACC-62,9.87 µM
same,GI50,LOX IMVI,19 µM
same,GI50,K562,6.23 µM
same,GI50,786-0 [17],8.12 µM
same,GI50,[18],2.94 µM
same,GI50,A498,2.69 µM
same,GI50,NCI-H460,3.1 µM
same,GI50,HOP-92 [19],11.2 µM
same,GI50,MDA-MB-435,1.56 µM
same,GI50,NCI-H322M,6.26 µM
same,GI50,SF-268,4.35 µM
same,GI50,NCI-H226,10.7 µM
same,GI50,OVCAR-5,1.91 µM
same,GI50,SNB-75 [20],1.46 µM
same,GI50,RPMI-8226,4.32 µM
same,GI50,HCC 2998,2.6 µM
same,GI50,HOP-62,4.52 µM
same,GI50,UACC-257 [21],16.1 µM
same,GI50,U-251,11.9 µM
same,GI50,SF-295 [22],2.96 µM
same,inhibition at 10 µM,786-0 [3],54%
same,GI50,PC-3,5.75 µM
same,GI50,OVCAR-3,1.79 µM
same,GI50,T47D [23],3.55 µM
same,inhibition at 10 µM,SNB-75 [5],76%
same,GI50,SK-MEL-28 [24],8.98 µM
same,GI50,HT-29 [25],4.42 µM
same,GI50,MOLT-4 [26],20.8 µM
same,GI50,UO-31,3.86 µM
same,GI50,SNB-19,11.3 µM
same,inhibition at 10 µM,MOLT-4 [6],31%
same,GI50,BT-549 [27],4.63 µM
same,GI50,MDA-MB-231,5.89 µM
same,GI50,SW-620,15.7 µM
same,GI50,NCI/ADR-RES,2.55 µM
same,GI50,Hs-578T,16.3 µM
same,GI50,KM12,2.02 µM
same,GI50,MCF7 [28],0.13 µM
same,inhibition at 10 µM,UACC-257 [7],39%
same,GI50,CAKI-1 [29],5.03 µM
same,GI50,MDA-MB-468,5.11 µM
same,GI50,Malme-3M,7.15 µM
same,GI50,NCI-H23,3.14 µM
same,GI50,TK-10,7.89 µM
same,inhibition at 10 µM,MCF7 [8],41%
same,GI50,SN12C,8.82 µM
same,GI50,DU-145,4.13 µM
same,GI50,EKVX,3.54 µM
same,GI50,HCT-116 [30],4.03 µM
same,inhibition at 10 µM,SK-MEL-28 [9],40%
same,GI50,CCRF-CEM [31],21.9 µM
same,GI50,HCT-15,3.35 µM
same,GI50,M14,5.47 µM
same,GI50,A549 [32],4.65 µM
same,GI50,OVCAR-8,26 µM
same,inhibition at 10 µM,HT-29 [10],77%
same,GI50,SK-MEL-5,5.03 µM
same,inhibition at 10 µM,CAKI-1 [11],44%
same,GI50,IGROV-1,1.29 µM
same,inhibition at 10 µM,HCT-116 [12],64%
same,inhibition at 10 µM,T47D [13],66%
same,GI50,NCI-H522,11.1 µM
same,GI50,SK-OV-3,7.55 µM
same,inhibition at 10 µM,HOP-92 [14],57%
same,GI50,SF-539,2.85 µM
same,inhibition at 10 µM,[15],58%
same,inhibition at 10 µM,SF-295 [16],61%
same,GI50,COLO 205,3.23 µM
